One test deals with T1, human HSP60/10 (Homo sapiens, UniProt P10809).
T1 construct: octa-Histidine tag (TEV-cleavable) (N, cleaved yes); made in house; host or cells: HSP60 in E. coli Rosetta 2 (DE3); HSP10 in Rosetta 2 (DE3) pLysS
The experiment in a line: HSP60/10-mediated dMDH refolding assay. Format: biochemical. As to conditions: human HSP60/10-dMDH refolding assay. A digest of the protocol:
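Preformed HSP60/10 (or GroEL/ES) complex with guanidine-denatured pig heart MDH was started with ATP (during refolding: 50 nM HSP60, 60 nM HSP10, 12 nM dMDH, 1 mM ATP; compounds 100 μM to 46 nM) at 37° C, then EDTA-quenched. Refolded MDH activity read as A340 NADH consumption with mesoxalate.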

Test [1] concerns Enterococcus faecium (ATCC 19434). In words: Bacterial proliferation assay, E. faecium. Type of test: cell-based. A digest of the protocol: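 Enterococcus faecium ATCC 19434 was grown overnight at 37° C. in BHI broth supplemented with 25 mg/L Ca^2+ and 12.5 mg/L Mg^2+, subcultured 1:5, and diluted to OD600 0.017. 30 μL portions went into 384-well plates holding compounds, sealed with oxygen-permeable membranes, and incubated stagnant at 37° C. OD600 was read at 24 h to give EC50.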

Test [2] relates to Drug sensitive Staphylococcus aureus (ATCC 25923). The experiment in a line: Bacterial proliferation assay, drug sensitive S. aureus. Type of test: cell-based. The gist of the method: (§1)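 Cultures in BHI broth with 25 mg/L Ca2+ and 12.5 mg/L Mg2+ were diluted to OD600 0.017 and exposed to compounds in 384-well plates at 37 °C without shaking. OD600 was read at 6-8 h (S. aureus, E. cloacae, P. aeruginosa) or 24 h (A. baumannii). EC50 values were averaged over quadruplicates.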

Test [3] has as its system Pseudomonas aeruginosa (ATCC 10145). The experiment in a line: Bacterial proliferation assay, P. aeruginosa. Type of test: cell-based. The gist of the method: as §1
The test system of test [4] is Enterobacter cloacae (ATCC 13047). In words: Bacterial proliferation assay, E. cloacae. Type of test: cell-based. A digest of the protocol: as §1
Where [5] appears, read: read-out: HSP60/10-dMDH Refolding IC50.
[6] abbreviates: log(IC50) ± standard deviation, read-out: HSP60/10-dMDH Refolding Assay log(IC50) (converted).
Where [7] appears, read: ATCC19434, OD600 at 24 h, read-out: Bacterial Proliferation EC50 E. faecium.
Where [8] appears, read: ATCC19434, log of EC50 (μM scale), with standard deviation, read-out: log(EC50) Bacterial Proliferation Assay C. faecium (converted).
Setting [9] is: ATCC25923, OD600 at 6-8 h, read-out: Bacterial Proliferation EC50 S. aureus Sensitive.
Setting [10] is: ATCC25923, log of EC50 (μM scale), with standard deviation, read-out: log(EC50) Bacterial Proliferation Assay S. aureus Sensitive (converted).
Setting [11] is: ATCC10145, OD600 at 6-8 h, read-out: Bacterial Proliferation EC50 P. aeruginosa.
Setting [12] is: ATCC10145, log of EC50 (μM scale), with standard deviation, read-out: log(EC50) Bacterial Proliferation Assay P. aeruginosa (converted).
The mark [13] stands for this setting: ATCC13047, OD600 at 6-8 h, read-out: Bacterial Proliferation EC50 E. cloacae.
Setting [14] is: ATCC13047, log of EC50 (μM scale), with standard deviation, read-out: log(EC50) Bacterial Proliferation Assay E. cloacae (converted).

Like-named read-outs stand apart in the source and are kept apart here. Where only a bound is given, the exact number is not on record here.

T1 sequence (P10809 27-573): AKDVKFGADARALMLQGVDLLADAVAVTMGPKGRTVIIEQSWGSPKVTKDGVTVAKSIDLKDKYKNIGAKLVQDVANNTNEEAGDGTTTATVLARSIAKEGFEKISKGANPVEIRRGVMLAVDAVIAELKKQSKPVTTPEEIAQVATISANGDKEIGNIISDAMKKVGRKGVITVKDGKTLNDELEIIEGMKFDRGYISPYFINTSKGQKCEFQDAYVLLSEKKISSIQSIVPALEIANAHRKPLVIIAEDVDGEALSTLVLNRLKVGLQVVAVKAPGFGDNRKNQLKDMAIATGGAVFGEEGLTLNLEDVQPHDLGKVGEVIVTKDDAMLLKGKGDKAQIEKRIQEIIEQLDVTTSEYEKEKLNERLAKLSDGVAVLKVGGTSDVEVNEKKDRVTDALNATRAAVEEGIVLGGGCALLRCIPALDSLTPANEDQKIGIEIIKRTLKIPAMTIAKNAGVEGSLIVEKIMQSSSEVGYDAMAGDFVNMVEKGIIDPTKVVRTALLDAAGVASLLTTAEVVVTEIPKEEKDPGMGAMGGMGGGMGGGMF

Regarding `O=C(Nc1ccc(Sc2nc3ccccc3s2)cc1)c1cc(Br)ccc1O` [Compound 7, N-(4-(Benzo[d]thiazol-2-ylthio)phenyl)-5-bromo-2-hydroxybenzamide], the IC50 at human HSP60/10 (setting [5]) and on human HSP60/10 (setting [6]) was over 100 µM in each case. For the same compound, the EC50 in test [1] (ATCC19434, 24 h, read-out: Bacterial Proliferation EC50 E. faecium) was 19 µM; in test [1] (ATCC19434, read-out: log(EC50) Bacterial Proliferation Assay C. faecium (converted)), 19.5 µM; in test [2] (ATCC25923, read-out: Bacterial Proliferation EC50 S. aureus Sensitive), 0.12 µM; in test [2] (ATCC25923, read-out: log(EC50) Bacterial Proliferation Assay S. aureus Sensitive (converted)), 0.12 µM; in test [3] (ATCC10145, read-out: Bacterial Proliferation EC50 P. aeruginosa) it was over 100 µM; in test [3] (ATCC10145, read-out: log(EC50) Bacterial Proliferation Assay P. aeruginosa (converted)), over 100 µM. Further, the EC50 in test [4] (ATCC13047, read-out: Bacterial Proliferation EC50 E. cloacae) is over 100 µM; in test [4] (ATCC13047, read-out: log(EC50) Bacterial Proliferation Assay E. cloacae (converted)), over 100 µM.

With `O=C(Nc1ccccc1)c1cc(Br)ccc1O` [Compound 15, 5-Bromo-2-hydroxy-N-phenylbenzamide], the IC50 on human HSP60/10 (setting [5]) and on human HSP60/10 (setting [6]) was over 100 µM each time. For the same compound, the EC50 in test [1] (setting [7]) is over 100 µM; in test [1] (setting [8]), over 100 µM; in test [2] (setting [9]), 2.8 µM; in test [2] (setting [10]), 2.75 µM; in test [3] (setting [11]), over 100 µM; in test [3] (setting [12]), over 100 µM. In addition, the EC50 in test [4] (setting [13]) and in test [4] (setting [14]) was over 100 µM in each case.

In the case of `COc1c(Br)cc(Br)cc1C(=O)Nc1cccc(Cl)c1` [Compound 37, 3,5-Dibromo-N-(3-chlorophenyl)-2-methoxybenzamide], the IC50 on human HSP60/10 (setting [5]) and at human HSP60/10 (setting [6]) was over 100 µM throughout. The EC50 in test [1] (setting [7]) was over 100 µM; in test [1] (setting [8]) it was over 100 µM; in test [2] (setting [9]) it was 46 µM; in test [2] (setting [10]), 45.7 µM; in test [3] (setting [11]), over 100 µM; in test [3] (setting [12]) it was over 100 µM. The EC50 in test [4] (setting [13]) and in test [4] (setting [14]) was over 100 µM throughout.

Turning to `COc1ccc(Br)cc1C(=O)Nc1ccccc1` [Compound 43, 5-Bromo-2-methoxy-N-phenylbenzamide], the IC50 on human HSP60/10 (setting [5]) and at human HSP60/10 (setting [6]) was over 100 µM in each case. Also, the EC50 in test [1] (setting [7]), in test [1] (setting [8]), in test [2] (setting [9]), in test [2] (setting [10]), in test [3] (setting [11]) and in test [3] (setting [12]) was over 100 µM in each case. In addition, the EC50 in test [4] (setting [13]) and in test [4] (setting [14]) was over 100 µM in each case.

As for `CO[C@H]1/C=C/O[C@@]2(C)Oc3c(C)c(O)c4c(O)c(c(/C=N/N5CCN(C)CC5)c(O)c4c3C2=O)NC(=O)/C(C)=C\C=C\[C@H](C)[C@H](O)[C@@H](C)[C@@H](O)[C@@H](C)[C@H](OC(C)=O)[C@@H]1C` [Rifampicin, rifampicin, reference compound], the IC50 at human HSP60/10 (setting [5]) and at human HSP60/10 (setting [6]) was over 100 µM each time. For the same compound, the EC50 is 0.13 µM in test [1] (setting [7]); 0.126 µM in test [1] (setting [8]); under 0.05 µM in test [2] (setting [9]); under 0.0501 µM in test [2] (setting [10]); 7.8 µM in test [3] (setting [11]); 7.76 µM in test [3] (setting [12]). Moreover, the values for the EC50 in test [4] (setting [13]) and in test [4] (setting [14]) were 8.8 µM and 8.71 µM, respectively.

In the case of `COc1c(Br)cccc1C(=O)Nc1cccc(Cl)c1` [Compound 38], the IC50 on human HSP60/10 (setting [5]) and at human HSP60/10 (setting [6]) was over 100 µM in each case. For the same compound, the EC50 in test [1] (setting [7]), in test [1] (setting [8]), in test [2] (setting [9]), in test [2] (setting [10]), in test [3] (setting [11]) and in test [3] (setting [12]) was over 100 µM in each case. The EC50 in test [4] (setting [13]) and in test [4] (setting [14]) was over 100 µM throughout.

The values above are taken from patent publication US20210395210A1, “INHIBITION OF BACTERIAL CHAPERONIN SYSTEMS” (THE TRUSTEES OF INDIANA UNIVERSITY, priority 2018, published 2021).
